Experimental data reported in patent publication US11945812B2, “Annulated 2-amino-3-cyano thiophenes and derivatives for the treatment of cancer” (Boehringer Ingelheim International GmbH, priority 2020, dated 2024).

Tests used:
[1] = Plasma protein binding (equilibrium dialysis), mouse plasma; type: in vitro ADME; conditions: read-out: PPB mouse fu
NCI-H358 cells = test: NCI-H358 CTG proliferation assay (120 h) (NSCLC); type: cell-based; conditions: Homo sapiens, read-out: IC50 NCl-H358
Experimental: NCI-H358 CTG Proliferation Assay (120 h) (NSCLC)
NCI-H358 cells (ATCC No. CRL-5807) were dispensed into white bottom opaque 96 well plates (Perkin Elmer cat no. 5680) at a density of 2000 cells per well in 100 μL RPMI-1640 ATCC-Formulation (Gibco # A10491)+10% FCS. Cells were incubated overnight at 37° C. in a humidified tissue culture incubator at 5% CO2. Compounds (10 mM stock in DMSO) were added at logarithmic dose series using the HP Digital Dispenser D300 (Tecan), normalizing for added DMSO. For the TO time point measurement, untreated cells were analyzed at the time of compound addition. Plates were incubated for 120 hours, and cell viability was measured using CellTiter-Glo luminescent cell viability reagent (Promega product code G7570). Viability (stated as percent of control) is defined as relative luminescence units RLU of each well divided by the RLU of cells in DMSO controls. IC50 values were determined from viability measurements by non-linear regression using a four parameter model.

[2] = target: T1, KRAS G12C::SOS1 protein-protein interaction (Homo sapiens, UniProt P01116, C118S/C51S/C80L/G12C); test: KRAS::SOS1 AlphaScreen binding assay; conditions: KRAS G12C::SOS1 AlphaScreen
T1 construct: His6 (N); host or cells: E. coli
T1 sequence (P01116 1-169 isoform P01116-2 G12C/C51S/C80L/C118S): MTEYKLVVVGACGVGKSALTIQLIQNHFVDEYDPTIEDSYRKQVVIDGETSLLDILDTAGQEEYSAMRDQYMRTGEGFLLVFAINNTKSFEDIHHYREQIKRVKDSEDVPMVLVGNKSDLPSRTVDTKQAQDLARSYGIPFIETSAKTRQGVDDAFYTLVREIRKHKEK

SW837 cells = test: SW837 CTG proliferation assay (CRC); type: cell-based; conditions: Homo sapiens; SW837 CTG proliferation; read-out: IC50 SW837
Experimental: SW837 CTG Proliferation Assay (CRC)
SW837 cells (ATCC #CCL-235) were grown in cell culture flasks (175 cm^2) using L-15 10% FCS, 1% L-Glu, 1×NEAA and 1×Na-Pyrovat. Cultures were incubated at 37° C. and 0% CO2 in a humidified atmosphere, with medium change or subcultivation 2-3 times a week. Materials used for the assay were CulturPlate-384, White Opaque 384-well Microplate, Sterile and Tissue Culture Treated (Perkin Elmer #6007680), Leibovitz L15 Medium and FBS # SH30071.03 (HyClone).
The proliferation assays started (day1) with seeding cells in flat bottom 384 well microtiter plates in 90 μL L-15 10% FCS, 1% L-Glu, 1×NEAA and 1× Na-Pyrovat at a density of 500 cells/well. Any other luminescence compatible plate format is possible. On day 2, 10 μL dilutions of the test compounds covering a concentration range between app. 0, 1 and 10.000 nM were added to the cells. Cells were incubated for 5 days in a humidified, CO2 controlled (no CO2) incubator at 37° C. On day 7 100 μL of Cell Titer Glow reagent (Cell titer Glo Luminescent Cat. No. G7571, Promega) were added to each well and incubated for additional 10 min at room temperature (with agitation). Luminescence was measured on a Wallac Victor using standard luminescence read out. IC50 values were calculated using standard Levenburg Marquard algorithms (GraphPad Prism).

[3] = Plasma protein binding (equilibrium dialysis), serum 10% FCS in PBS; type: in vitro ADME; conditions: bovine, 10% FCS in PBS (serum), read-out: PPB 10% FCS fu
[4] = Plasma protein binding (equilibrium dialysis), human plasma; type: in vitro ADME; conditions: read-out: PPB human fu

C=CC(=O)N1[C@@H](C)CN(c2cc(O[C@@H](C)[C@@H]3CCCN3C)nc(-c3cc([C@@]4(C)CCCc5sc(N)c(C#N)c54)sn3)n2)C[C@@H]1C [Id-4]
fraction unbound [1]: 0.005
IC50 (NCI-H358 cells): 1.09 nM
IC50 [2]: 1.7 nM
IC50 (SW837 cells): 0.68 nM
fraction unbound [3]: 0.371
fraction unbound [4]: 0.014
